Measurements reported in US9422321B2, “Pyrimidine nucleoside derivatives, synthesis methods and uses thereof for preparing anti-tumor and anti-virus medicaments” (High & New Technology Research Center, Henan Academy of …, priority 2010, dated 2016).

Columns and labels:
VSVG/HIV-luc (NL4-3) = assay: microbe, parasite or virus in culture; type: cell-based, HIV-1; conditions: Human immunodeficiency virus 1, NL43, HEK-293T; for inhibition at 10 µM: read-out: Inhibitory activity at 10 μM; for EC50: 48 h, read-out: EC50 (μM) VSVG/HIV-luc (NL4-3)
HBsAg = assay: In vitro inhibition of HBV: HBsAg in HepG2.2.15 cells by ELISA; type: cell-based; conditions: Hepatitis B virus, HepG2.2.15, read-out: IC50 (μM) (HBsAg)
Experimental: (§1) A tube of frozen HepG2.2.15 cells taken from a liquid nitrogen tank was quickly placed into a water bath at 42° C. and shaken to thaw. DMEM complete medium (fetal bovine serum 10%, G418 380 μg/mL, Penicillin 100 U/ml, Streptomycin 100 U/ml) was used for cell culturing at conditions of 37° C. and 5% CO2. The number of cell passage in normal growing cells was once per 2-3 days.
(§2) The effect of a compound on HBV surface antigen s and antigen e in the cell culture was detected using a screening concentration lower than the half toxic concentration of the compound. HepG2.2.15 cells in logarithmic growth phase were selected and digested with trypsin into single cell suspension, and were seeded to a 24-well plate at a concentration of 2×10^4/mL, 1 mL per well. Media of different medicament concentrations were added, three wells for each concentration, and cells added with complete medium were set as normal control. Cell supernatants and cells at day 3, day 6 and day 9 were collected and kept under −20° C. The intracellular and extracellular expressions of e antigen and surface antigen at day 3, day 6 and day 9 were determined by ELISA.
(§3) 2.4 Effect of the Compound on HBeAg and HBsAg in HepG2.2.15 Cell Supernatant Detected by ELISA
(§4) The instructions of the kit were followed;
(§5) Measurement: OD value of each well was read from microplate reader using dual wavelength 450/630 nm.
(§6) Result determination: The Cutoff value was first calculated according to equation: COV=average OD of negative control×2.1. Then, if a sample had OD≧COV, the result was determined as positive, or if a sample had OD≦COV, the result was determined as negative.

HBeAg = assay: In vitro inhibition of HBV: HBeAg in HepG2.2.15 cells by ELISA; type: cell-based; conditions: Hepatitis B virus, HepG2.2.15, read-out: IC50 (μM) (HBeAg)
Experimental: as §1, §2, §3, §4, §5, §6

[1] = MTT test of cytotoxicity on HepG2.2.15 cells; type: cell-based; conditions: human, read-out: CC50 (μM) (HepG2. 2. 15)
Experimental: as §1
Cytotoxicity of the compound on HepG2.2.15 cells was tested with the MTT colorimetric assay established by Mosmann. After continuous incubation for 72 h, 10 μL MTT was added to each well. Four hours later, the supernatant was discarded and 200 μL DMSO was added to each well. The OD value in each well was read using a microplate reader (measurement wavelength 490 nm, reference wavelength 630 nm). The result was recorded and the percentage inhibition of HepG2.2.15 cells by each compound was calculated:
The half toxic concentration (TC50) of the medicament on cells was calculated according to the percentage inhibition of the cell by the medicament.

[2] = MTS test of effects of the compound on cell survival; type: cell-based; conditions: human, 293T cells
Experimental: Then, 20 μL freshly prepared mixture of MTS/PMS was added to each well and after 4 h incubation in the incubator at 37° C. with 5% CO2, the color was developed. The light absorption (OD) of each well at wavelengths 490 nm and 650 nm (background) was detected on an enzyme linked immuno analyzer, and the survival rate of cells was calculated.

SMILES | inhibition at 10 µM (VSVG/HIV-luc (NL4-3)) | IC50 (HBsAg) | CC50 at 72 h [1] | further results
[N-]=[N+]=N[C@]1(CO)O[C@@H](n2ccc(NCC(O)CN)nc2=O)C(F)C1O (stereo partly shown) [Compound 5-33] | 14.1 ± 2.2% | – | – | –
[N-]=[N+]=N[C@]1(CO)O[C@@H](n2ccc(N3CCOCC3)nc2=O)C(F)C1O (stereo partly shown) [Compound 5-12] | 3 ± 6.9% | < 0.1 µM | 700 µM | IC50 (HBeAg): > 1 µM
CCCCCCCCNc1ccn([C@@H]2O[C@@](CO)(N=[N+]=[N-])C(O)C2F)c(=O)n1 (stereo partly shown) [Compound 5-27] | 32.3 ± 3.2% | – | – | –
[N-]=[N+]=N[C@]1(CO)O[C@@H](n2cc(C#CCCO)c(N)nc2=O)C(F)C1O (stereo partly shown) [Compound 15] | 27 ± 4.7% | – | – | –
COC(=O)[C@@H]1CCCN1c1ccn([C@@H]2O[C@@](CO)(N=[N+]=[N-])C(O)C2F)c(=O)n1 (stereo partly shown) [Compound 7L] | 5.1 ± 4.6% | 0.02 µM | 596 µM | –
CCCCCNc1ccn([C@@H]2O[C@@](CO)(N=[N+]=[N-])C(O)C2F)c(=O)n1 (stereo partly shown) [Compound 5-24] | 33.8 ± 1% | – | – | –
[N-]=[N+]=N[C@]1(CO)O[C@@H](n2ccc(NC3CCCCC3)nc2=O)C(F)C1O (stereo partly shown) [Compound 5-10] | 1.9 ± 2.2% | < 0.1 µM | 654 µM | –
CNNc1ccn([C@@H]2O[C@@](CO)(N=[N+]=[N-])C(O)C2F)c(=O)n1 (stereo partly shown) [Compound 5-31] | 22.8 ± 3.5% | – | – | –
CCCCCCNc1ccn([C@@H]2O[C@@](CO)(N=[N+]=[N-])C(O)C2F)c(=O)n1 (stereo partly shown) [Compound 5-25] | 35 ± 1.7% | – | – | –
[N-]=[N+]=N[C@]1(CO)O[C@@H](n2ccc(NN3CCOCC3)nc2=O)C(F)C1O (stereo partly shown) [Compound 5-22] | 14.2 ± 5.1% | – | – | –
CCNc1ccn([C@@H]2O[C@@](CO)(N=[N+]=[N-])C(O)C2F)c(=O)n1 (stereo partly shown) [Compound 5-01] | 21.6 ± 1.3% | – | – | –
[N-]=[N+]=N[C@]1(CO)O[C@@H](n2cc(-c3ccco3)c(=O)[nH]c2=O)C(F)C1O (stereo partly shown) [Compound 10] | 15.1 ± 0.8% | – | – | –
[N-]=[N+]=N[C@]1(CO)O[C@@H](n2ccc(N3CCSCC3)nc2=O)C(F)C1O (stereo partly shown) [Compound 5-29] | 11.6 ± 0.5% | – | – | –
COC(=O)[C@H](Nc1ccn([C@@H]2O[C@@](CO)(N=[N+]=[N-])C(O)C2F)c(=O)n1)C(C)C (stereo partly shown) [Compound 8f] | – | 0.26 µM | > 250 µM | EC50 (VSVG/HIV-luc (NL4-3)): 4.7 ± 0.1 µM; CC50 at 44 h [2]: ≥ 25 µM
COC(=O)[C@H](CO)Nc1ccn([C@@H]2O[C@@](CO)(N=[N+]=[N-])C(O)C2F)c(=O)n1 (stereo partly shown) [Compound 8h] | – | 0.07 µM | > 250 µM | EC50 (VSVG/HIV-luc (NL4-3)): 6.2 ± 0.6 µM; CC50 at 44 h [2]: ≥ 25 µM
[N-]=[N+]=N[C@]1(CO)O[C@@H](n2ccc(NCC(O)CO)nc2=O)C(F)C1O (stereo partly shown) [Compound 5-18] | 17.8 ± 0.6% | – | – | –
[N-]=[N+]=N[C@]1(CO)O[C@@H](n2cc(C(=O)N3CCOCC3)c(=O)[nH]c2=O)C(F)C1O (stereo partly shown) [Compound 22] | 0% | 2.14 µM | 644 µM | –
[N-]=[N+]=N[C@]1(CO)O[C@@H](n2cc3cc(CCO)oc3nc2=O)C(F)C1O (stereo partly shown) [Compound 16] | 9.9 ± 0.8% | – | – | –
[N-]=[N+]=N[C@]1(CO)O[C@@H](n2ccc(N3CCCC3)nc2=O)C(F)C1O (stereo partly shown) [Compound 5-05] | 31.6 ± 3.6% | – | – | –
CON(C)c1ccn([C@@H]2O[C@@](CO)(N=[N+]=[N-])C(O)C2F)c(=O)n1 (stereo partly shown) [Compound 5-06] | 32.2 ± 10.5% | – | – | –
[N-]=[N+]=N[C@]1(CO)O[C@@H](n2ccc(NCCO)nc2=O)C(F)C1O (stereo partly shown) [Compound 5-13] | 41.7 ± 1.8% | – | – | –
[N-]=[N+]=N[C@]1(CO)O[C@@H](n2ccc(NCCc3ccc(O)cc3)nc2=O)C(F)C1O (stereo partly shown) [Compound 5-03] | – | < 0.1 µM | 834 µM | EC50 (VSVG/HIV-luc (NL4-3)): 5.7 ± 0.2 µM; CC50 at 44 h [2]: ≥ 25 µM
[N-]=[N+]=N[C@]1(CO)O[C@@H](n2cc(C(=O)N3CCSCC3)c(=O)[nH]c2=O)C(F)C1O (stereo partly shown) [Compound 27] | 4.8 ± 1.8% | < 0.1 µM | 585 µM | –
